For data set [1] the following is noted: in vivo; cited from earlier work.
Another data set relates to glycine/NMDA receptor. Particulars: previous radioligand binding studies; cited from earlier work.
For data set [2] the following is noted: in vivo; cited from earlier work. The source holds these as a separate data set.
For the next data set, the system named is rats. The data set can be described thus: Rat conflict test. The procedure: Male Hooded Lister rats (200-250 g) were obtained from Interfauna (Huntingdon, UK) and male TO mice (20-25 g) were obtained from Bantin and Kingman (Hull, UK). Both rodent species were housed in groups of six. Ten Common Marmosets (Callithrix Jacchus) weighing between 280 and 360 g, bred at Manchester University Medical School (Manchester, UK) were housed in pairs. All animals were housed under a 12-hour light/dark cycle (lights on at 07.00 hour) and with food and water ad libitum.
Rats were trained to press levers for food reward in operant chambers. The schedule consisted of alternations of four 4-minute unpunished periods on variable interval of 30 seconds signalled by chamber lights on and three 3-minute punished periods on fixed ratio 5 (by footshock concomitant to food delivery) signalled by chamber lights off. The degree of footshock was adjusted for each rat to obtain approximately 80% to 90% suppression of responding in comparison with unpunished responding. Rats received saline vehicle on training days.
The results are expressed as mean percent increase or decrease of lever pressing (vertical bars represent ±SEM) of at least 5 animals per group on test day compared with mean performances obtained the 2 previous days following vehicle administration.
*p <0.05, **p <0.01 (paired Student t-test).

In the case of `NCC1(CC(=O)O)CCCCC1` [gabapentin, 1-(aminomethyl)cyclohexaneacetic acid], the “metabolism in the body” value in data set [1] is on record as “not metabolized”. In addition, the “binding to the glycine/NMDA receptor” value with glycine/NMDA receptor was “does not bind”. The “penetration of the blood-brain barrier” value in data set [2] is “readily penetrates”. In the data set with rats (100 mg/kg (highest dose tested)), the “reduction in lever pressing in the unpunished period (indicating sedation/ataxia)” value amounted to 37.4%.

On to `CNC1=Nc2ccc(Cl)cc2C(c2ccccc2)=[N+]([O-])C1` [chlordiazepoxide], for which, in the data set with rats (3 mg/kg (minimum effective dose), 40 minutes before test), the “increase in lever pressing in the punished period” value came to 128.4%. The “maximal effect, increase in lever pressing in the punished period” value with rats (30 mg/kg, 40 minutes before test) was determined as 330.0%. Also, in the data set on rats (Rattus norvegicus, 40 min, read-out: minimum effective dose (MED) for increased lever pressing in the punished period), the minimal effective dose was 3 mg/kg. Besides, the unpunished responding result with rats (any of the doses tested (1-100 mg/kg)) is given as “not reduced”.

Source of the values: patent US5792796A, “Methods for treating anxiety and panic” (Warner-Lambert Company, priority 1995, dated 1998).
